Consider 20 compounds from patent US20070049593A1 (priority 2004, published 2007).

pIC50: −log10 of the molar value. Where a name gives a salt, the structure may show the parent alone.

The target of the assay is T1, HCV polymerase (Hepatitis C virus genotype 1b, UniProt P26663).
T1 construct: a region encoding NS5B (J Virol 1991 March, 65(3), 1105-13, 544 amino acids after deletion of 47 amino acids on the C-terminal); 6xHis (C); made in house; host or cells: Escherichia coli
T1 sequence (P26663 2420-2963): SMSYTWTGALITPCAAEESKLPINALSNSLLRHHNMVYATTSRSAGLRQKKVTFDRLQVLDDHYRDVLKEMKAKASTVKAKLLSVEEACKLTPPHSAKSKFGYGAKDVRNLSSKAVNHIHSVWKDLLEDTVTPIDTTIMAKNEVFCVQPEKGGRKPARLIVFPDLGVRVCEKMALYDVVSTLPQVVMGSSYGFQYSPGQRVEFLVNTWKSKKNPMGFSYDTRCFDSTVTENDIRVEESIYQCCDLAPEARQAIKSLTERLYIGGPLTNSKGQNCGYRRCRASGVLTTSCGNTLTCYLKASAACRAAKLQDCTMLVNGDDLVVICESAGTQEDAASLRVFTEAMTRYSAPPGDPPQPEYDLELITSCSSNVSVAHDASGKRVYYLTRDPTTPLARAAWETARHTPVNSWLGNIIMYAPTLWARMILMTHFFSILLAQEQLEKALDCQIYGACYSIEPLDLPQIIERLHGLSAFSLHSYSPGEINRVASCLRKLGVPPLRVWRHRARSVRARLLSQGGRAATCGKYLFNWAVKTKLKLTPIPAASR
Kind of assay: biochemical. Set-up: species or system HCV BK strain. The method, boiled down:
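Recombinant HCV BK-strain NS5B (C-terminal 47 aa deleted, His6-tagged, E. coli), 0.5 μg/ml, run with 5 μg/ml in vitro-transcribed RNA template (polyU/3′X), ATP/GTP/CTP 50 μM, UTP 2 μM plus [3H]UTP, pH 7.5, 25° C, 90 min. TCA-precipitated RNA counted by scintillation; IC50 from activity with vs without compound.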
The term pIC50 denotes −log10 of the IC50, conventionally taken in molar units. On to `CCC1CCCN(CCN2CCn3c(c(C4CCCCC4)c4ccc(C(=O)O)cc43)-c3ccccc32)C1` (centres unmarked) [Example 1-190, 13-cyclohexyl-5-[2-(3-ethylpiperidin-1-yl)ethyl]-6,7-dihydro-5H-benzo[5,6][1,4]diazepino[7,1-a]indole-10-carboxylic acid dihydrochloride], for which the negative logarithm of the IC50 (pIC50) was more than 7.00. The result for `Cc1ccc2c(c1)-c1c(C3CCCCC3)c3ccc(C(=O)O)cc3n1CCN2CCN1CCCCC1` [Example 1-191, 13-cyclohexyl-2-methyl-5-[2-(piperidin-1-yl)ethyl]-6,7-dihydro-5H-benzo[5,6][1,4]diazepino[7,1-a]indole-10-carboxylic acid dihydrochloride] reads 6.00 to 7.00; that for `CCCC1CCN(CCN2CCn3c(c(C4CCCCC4)c4ccc(C(=O)O)cc43)-c3ccccc32)CC1` [Example 1-192, 13-cyclohexyl-5-[2-(4-propylpiperidin-1-yl)ethyl]-6,7-dihydro-5H-benzo[5,6][1,4]diazepino[7,1-a]indole-10-carboxylic acid dihydrochloride], more than 7.00. Compound `C[C@@H]1CCC[C@H](C)N1CCN1CCn2c(c(C3CCCCC3)c3ccc(C(=O)O)cc32)-c2ccccc21` [Example 1-193, 13-cyclohexyl-5-[2-((2S,6R)-2,6-dimethylpiperidin-1-yl)ethyl]-6,7-dihydro-5H-benzo[5,6][1,4]diazepino[7,1-a]indole-10-carboxylic acid dihydrochloride] had a pIC50 of more than 7.00. The compound `O=C(O)c1ccc2c(C3CCCCC3)c3n(c2c1)CCN(CCCN1CCCCCC1)c1ccccc1-3` [Example 1-194, 5-[3-(azepan-1-yl)propyl]-13-cyclohexyl-6,7-dihydro-5H-benzo[5,6][1,4]diazepino[7,1-a]indole-10-carboxylic acid dihydrochloride] showed a pIC50 of more than 7.00.

As to `O=C(CN1CCn2c(c(C3CCCCC3)c3ccc(C(=O)O)cc32)-c2ccccc21)NC12CC3CC(CC(C3)C1)C2` [Example 1-195, 5-(adamantan-1-ylcarbamoylmethyl)-13-cyclohexyl-6,7-dihydro-5H-benzo[5,6][1,4]diazepino[7,1-a]indole-10-carboxylic acid monohydrochloride], the pIC50 was more than 7.00. The result for `O=C(O)c1ccc2c(C3CCCCC3)c3n(c2c1)CCN(CCNC12CC4CC(CC(C4)C1)C2)c1ccccc1-3` [Example 1-196, 5-[2-(adamantan-1-ylamino)ethyl]-13-cyclohexyl-6,7-dihydro-5H-benzo[5,6][1,4]diazepino[7,1-a]indole-10-carboxylic acid dihydrochloride] reads more than 7.00.

The compound `COCC1CCN(CCN2CCn3c(c(C4CCCCC4)c4ccc(C(=O)O)cc43)-c3ccccc32)CC1` [Example 1-197, 13-cyclohexyl-5-[2-(4-methoxymethylpiperidin-1-yl)ethyl]-6,7-dihydro-5H-benzo[5,6][1,4]diazepino[7,1-a]indole-10-carboxylic acid dihydrochloride] had a pIC50 of more than 7.00. `CCCN(C)CCN1CCn2c(c(C3CCCCC3)c3ccc(C(=O)O)cc32)-c2ccccc21` [Example 1-198, 13-cyclohexyl-5-[2-(N-methyl-N-propylamino)ethyl]-6,7-dihydro-5H-benzo[5,6][1,4]diazepino[7,1-a]indole-10-carboxylic acid dihydrochloride] had a pIC50 of more than 7.00. The value for `CC1(C)CCN(CCN2CCn3c(c(C4CCCCC4)c4ccc(C(=O)O)cc43)-c3ccccc32)CC1` [Example 1-199, 13-cyclohexyl-5-[2-(4,4-dimethylpiperidin-1-yl)ethyl]-6,7-dihydro-5H-benzo[5,6][1,4]diazepino[7,1-a]indole-10-carboxylic acid dihydrochloride] was more than 7.00; that for `COCC1CCCN(CCN2CCn3c(c(C4CCCCC4)c4ccc(C(=O)O)cc43)-c3ccccc32)C1` (centres unmarked) [Example 1-200, 13-cyclohexyl-5-[2-(3-methoxymethylpiperidin-1-yl)ethyl]-6,7-dihydro-5H-benzo[5,6][1,4]diazepino[7,1-a]indole-10-carboxylic acid dihydrochloride] was more than 7.00; that for `CN1CCCC(CCN2CCn3c(c(C4CCCCC4)c4ccc(C(=O)O)cc43)-c3ccccc32)C1` (centres unmarked) [Example 1-201, 13-cyclohexyl-5-[2-(1-methylpiperidin-3-yl)ethyl]-6,7-dihydro-5H-benzo[5,6][1,4]diazepino[7,1-a]indole-10-carboxylic acid dihydrochloride] was more than 7.00. `CC(C)N1CCCC(CCN2CCn3c(c(C4CCCCC4)c4ccc(C(=O)O)cc43)-c3ccccc32)C1` (centres unmarked) [Example 1-202, 13-cyclohexyl-5-[2-(1-isopropylpiperidin-3-yl)ethyl]-6,7-dihydro-5H-benzo[5,6][1,4]diazepino[7,1-a]indole-10-carboxylic acid dihydrochloride] showed a pIC50 of more than 7.00. Regarding `O=C(O)c1ccc2c(C3CCCCC3)c3n(c2c1)CC(=O)N(CC(=O)N1CCCCC1)c1ccccc1-3` [Example 1-203, 13-cyclohexyl-6-oxo-5-[2-oxo-2-(piperidin-1-yl)ethyl]-6,7-dihydro-5H-benzo[5,6][1,4]diazepino[7,1-a]indole-10-carboxylic acid], the pIC50 was more than 7.00. `CCN1CCN(C(=O)CN2C(=O)Cn3c(c(C4CCCCC4)c4ccc(C(=O)O)cc43)-c3ccccc32)CC1` [Example 1-204, 13-cyclohexyl-5-[2-(4-ethylpiperazin-1-yl)-2-oxoethyl]-6-oxo-6,7-dihydro-5H-benzo[5,6][1,4]diazepino[7,1-a]indole-10-carboxylic acid monohydrochloride]: the pIC50 is more than 7.00.

`O=C(O)c1ccc2c(C3CCCCC3)c3n(c2c1)CCN(CCN1CC=CCC1)c1ccccc1-3` [Example 1-205, 13-cyclohexyl-5-[2-(3,6-dihydro-2H-pyridin-1-yl)ethyl]-6,7-dihydro-5H-benzo[5,6][1,4]diazepino[7,1-a]indole-10-carboxylic acid] had a pIC50 of more than 7.00. The compound `Cc1cccc2c1N(CCN1CCCCC1)CCn1c-2c(C2CCCCC2)c2ccc(C(=O)O)cc21` [Example 1-206, 13-cyclohexyl-4-methyl-5-[2-(piperidin-1-yl)ethyl]-6,7-dihydro-5H-benzo[5,6][1,4]diazepino[7,1-a]indole-10-carboxylic acid dihydrochloride] gave a negative logarithm of the IC50 (pIC50) of more than 7.00.

`COC[C@@H]1CCCN1CCN1CCn2c(c(C3CCCCC3)c3ccc(C(=O)O)cc32)-c2ccccc21` [Example 1-207, 13-cyclohexyl-5-[2-((S)-2-methoxymethylpyrrolidin-1-yl)ethyl]-6,7-dihydro-5H-benzo[5,6][1,4]diazepino[7,1-a]indole-10-carboxylic acid dihydrochloride] gave a pIC50 of more than 7.00. In turn, `CC1CCCN1CCN1CCn2c(c(C3CCCCC3)c3ccc(C(=O)O)cc32)-c2ccccc21` (centres unmarked) [Example 1-208, 13-cyclohexyl-5-[2-(2-methylpyrrolidin-1-yl)ethyl]-6,7-dihydro-5H-benzo[5,6][1,4]diazepino[7,1-a]indole-10-carboxylic acid dihydrochloride] gave a negative logarithm of the IC50 (pIC50) of more than 7.00. Compound `CC(C)CN(C)CCN1CCn2c(c(C3CCCCC3)c3ccc(C(=O)O)cc32)-c2ccccc21` [Example 1-209, 13-cyclohexyl-5-[2-(N-isobutyl-N-methylamino)ethyl]-6,7-dihydro-5H-benzo[5,6][1,4]diazepino[7,1-a]indole-10-carboxylic acid dihydrochloride] gave a pIC50 of more than 7.00.
